Reference: PubChem BioAssay AID720714 (Broad Institute, 2013)
Active and inactive are the calls of the source. No rule for the calls is given here.

Tests used:
[1] = viability loss in HepG2 hepatoma cells – cell-based, plate reader, dry powder, set 3, cytotoxicity control, dose response (AID 720714); conditions: HepG2 cytotoxicity, plate reader; at 26 µM (top of the series)
[2] = system: HepG2 cytotoxicity, plate reader; experiment: as above

Compound	activity change, negative = cytotoxicity [1]	AC50 [2] [µM]
CCCOc1ccccc1C1CC(=O)Nc2cc3c(cc21)OCO3 (stereo unspecified)	73.2% (inactive)	
CN(C)c1nc(-c2ccccn2)nnc1-c1ccccc1		26.5
Cc1ccc2cc(CN(CC3CCCO3)C(=O)NC3CCCCC3)c(=O)[nH]c2c1C (stereo unspecified)	64.3% (inactive)	
COc1ccc(Nc2nc(N3CCCCC3)c3ccccc3n2)cc1	-24.8% (inactive)	
COc1cc2ncnc(N[C@H](C)c3ccccc3)c2cc1OC	45.6% (inactive)	
Cc1cc(N2CCCC2=O)cc(C)c1S(=O)(=O)NCCOc1ccc(C(C)(C)C)cc1	15.4% (inactive)	
Nc1nonc1C(=O)NCCNCc1cc(Br)ccc1OCc1ccc(F)cc1	-54.9% (inactive)	
CCCc1nnc(NC(=O)c2nc(S(=O)(=O)Cc3ccc(C)cc3)ncc2Cl)s1	26.2% (inactive)	
CC(=O)Nc1cccc(NC(=O)CSc2ncc(-c3ccc(Cl)cc3)n2Cc2ccco2)c1	-23% (inactive)	
Fc1ccc(-n2nnnc2-c2cnc(-c3cccs3)nc2C(F)(F)F)cc1	23.6% (inactive)	
CCOC(=O)C1CCN(C(=O)c2ccc(OCC(=O)Nc3cccc(C(F)(F)F)c3)c(OC)c2)CC1	11.7% (inactive)	
COc1ccc2c(c1)c(CC(=O)Nc1cc(C)ccc1C)c(C)n2C(=O)c1ccc(Cl)cc1	8.4% (inactive)	
CN(C(=O)COc1ccccc1C(=O)NCCOc1ccccc1)c1ccccc1	-26.1% (inactive)	
CN(C)S(=O)(=O)c1cccc(NC(=O)c2cccc(S(=O)(=O)N3CCc4ccccc43)c2)c1	10.3% (inactive)	
Cc1cc2c(cc(C(=O)N3CCC(C(=O)NC4CCCC4)CC3)n2Cc2c(F)cccc2Cl)o1	132% (inactive)	
O=c1c2ccccc2nc2n1C(CSCc1ccc(Cl)cc1Cl)CS2 (stereo unspecified)	-17.2% (inactive)	
COc1ccc(NC(=O)c2nc(S(=O)(=O)Cc3cccc(C)c3)ncc2Cl)c(OC)c1	-19.7% (inactive)	
O=C1CSc2ccc(C(=O)Nc3cccc(S(=O)(=O)Nc4ccc(Br)cc4)c3)cc2N1	-35.1% (inactive)	
COc1ccc(NS(=O)(=O)c2ccc(C(=O)N3CCCCCC3)cc2)cc1	41.5% (inactive)	
CC(C)(C)NC(=O)CSc1nc2ccc(NC(=O)CSc3nnnn3Cc3ccccc3)cc2s1		15.5
CC(C)[C@H](NC(=O)OC(C)(C)C)c1nnc(S(=O)(=O)Cc2c(F)cccc2Cl)o1	-90.6% (inactive)	
O=C(c1nnsc1S(=O)c1ccc(Cl)cc1)N1CCOCC1 (stereo unspecified)		14.5
CC(=O)N1CCN(C(=O)CCc2cc(C(C)(C)C)c(O)c(C(C)(C)C)c2)CC1	84.8% (inactive)	
COc1ccccc1N1CCN(c2ncc(C(=O)N3CCN(c4cccc(Cl)c4)CC3)c3ccccc23)CC1	111% (inactive)	
CN(CC(=O)Nc1cccc(S(=O)(=O)N2CCOCC2)c1)CC(=O)Nc1ccc(Cl)c(C(F)(F)F)c1	-15.1% (inactive)	
COc1cc(CN2CCc3ccccc3C2)ccc1O		21.6
